Experimental data as given in ChEMBL document CHEMBL3603791, “Role of polyol moiety of amphotericin B in ion channel formation and sterol selectivity in bilayer membrane” (Bioorg Med Chem, 2015).
Converted amounts (≈) assume the structure as drawn.

Key:
[1] = Toxicity in human erythrocytes assessed as induction of hemolysis incubated for 18 hrs; format: cell-based, Erythrocyte
[2] = Toxicity in human erythrocytes assessed as induction of hemolysis at 15 uM incubated for 18 hrs; format: cell-based, Erythrocyte; details: read-out: Activity
Candida albicans = assay: Antimicrobial activity against Candida albicans ATCC 36082 incubated for 2 days at 35 degC by CLSI protocol based method; format: functional; details: ATCC 36082, 48 h
[3] = Induction of potassium influx in sterol-free and cholesterol and ergosterol-containing POPC liposomes at 32 uM by BCECF dye based fluorimetric assay; format: physicochemical

In the case of C[C@@H]1[C@H](O)[C@@H](C)/C=C/C=C/C=C/C=C/C=C/C=C/C=C/[C@H](O[C@@H]2O[C@H](C)[C@@H](O)[C@H](N)[C@@H]2O)C[C@@H]2O[C@](O)(C[C@@H](O)C[C@@H](O)[C@H](O)C(=O)C[C@@H](O)C[C@@H](O)CC(=O)O[C@H]1C)C[C@H](O)[C@H]2C(=O)O, the HC50 at 18 h [1] is reported as > 15 µM, the hemolysis at 18 h, 15 µM [2] is reported as 10% and the MIC (Candida albicans) is reported as 2 µM (≈ 1.88 µg/mL). For the same compound, the Activity [3] was “Not Active”.

For C[C@@H]1[C@H](O)[C@@H](C)/C=C/C=C/C=C/C=C/C=C/C=C/C=C/[C@H](O[C@@H]2O[C@H](C)[C@@H](O)[C@H](N)[C@@H]2O)C[C@@H]2O[C@](O)(C[C@@H](O)C[C@@H](O)[C@H](O)[C@H](O)C[C@@H](O)C[C@@H](O)CC(=O)O[C@H]1C)C[C@H](O)[C@H]2C(=O)O, the HC50 at 18 h [1] was 5.4 µM, the MIC (Candida albicans) was 4 µM (≈ 3.76 µg/mL) and the Activity [3] was “Not Active”.

With C[C@@H]1[C@H](O)[C@@H](C)/C=C/C=C/C=C/C=C/C=C/C=C/C=C/[C@H](O[C@@H]2O[C@H](C)[C@@H](O)[C@H](N)[C@@H]2O)C[C@@H]2O[C@](O)(C[C@@H](O)C[C@@H](O)[C@H](O)[C@@H](O)C[C@@H](O)C[C@@H](O)CC(=O)O[C@H]1C)C[C@H](O)[C@H]2C(=O)O the HC50 at 18 h [1] was 6.9 µM, the MIC (Candida albicans) was 1 µM (≈ 0.94 µg/mL) and the Activity [3] was “Not Active”.

In the case of C[C@@H]1[C@H](O)[C@@H](C)/C=C/C=C/C=C/C=C/C=C/C=C/C=C/[C@H](O[C@@H]2O[C@H](C)[C@@H](O)[C@H](N)[C@@H]2O)C[C@@H]2O[C@](O)(C[C@@H](O)C[C@@H](O)[C@H](O)CC[C@@H](O)C[C@@H](O)CC(=O)O[C@H]1C)C[C@H](O)[C@H]2C(=O)O [AMPHOTERICIN B], the HC50 at 18 h [1] is reported as 3.2 µM, the MIC (Candida albicans) is reported as 0.25 µM (≈ 0.231 µg/mL) and the Activity [3] is reported as “Active”.
